Patent publication US20110230476A1, “PI3 KINASE INHIBITORS AND USES THEREOF” (AVILA THERAPEUTICS, INC., priority 2009, published 2011)

biological target: T1, PI3Kα (p110α/p85α) (Homo sapiens, UniProt P42336); assay: HTRF assay, potency against active PI3Kα; type: biochemical; settings: HTRF; [ATP]=50 μM, [di-C8-PIP2]=10 μM; 30 min pre-incubation; read-out: PI3Kα Inhibition
T1 construct: purchased BPS Bioscience (San Diego, Calif.) or Millipore (Billerica, Mass.)
Procedure: Homogeneous Time Resolved Fluorescence (HTRF) Assay Protocol for Potency Assessment Against the Active Forms of PI3Kα, PI3Kβ, and PI3Kγ
The mechanics of the assay platform are best described by the vendor (Millipore, Billerica, Mass.) on their website at the following URL: www.millipore.com/coa/tech1/74jt4z.
Briefly, Stop solution (Stop A, #33-007 and Stop B, #33-009; 3:1 ratio) and Detection Mix (from DMC, #33-015 with DMA, #33-011 and DMB, #33-013; 18:1:1 ratio) were prepared as recommended by the manufacturer about 2 hrs prior to use. […] Lipid kinase reactions were started with the addition of 5 μL of ATP solution, mixed for 15 sec on a rotary plate shaker and incubated for 30-60 minutes at 25° C. Next, reactions were stopped with a 5 μL addition of Stop solution immediately followed by a 5 μL volume of Detection Mix. […] At the conclusion of each assay, the HTRF ratio from fluorescence emission values for each well was calculated and % Inhibition determined from averaged controls wells (+/−PI3K enzyme). % Inhibition values for each compound were then plotted against inhibitor concentration to estimate IC50 from log [Inhibitor] vs Response, Variable Slope model in GraphPad Prism from GraphPad Software (San Diego, Calif.).

T1 sequence (P42336 whole entry): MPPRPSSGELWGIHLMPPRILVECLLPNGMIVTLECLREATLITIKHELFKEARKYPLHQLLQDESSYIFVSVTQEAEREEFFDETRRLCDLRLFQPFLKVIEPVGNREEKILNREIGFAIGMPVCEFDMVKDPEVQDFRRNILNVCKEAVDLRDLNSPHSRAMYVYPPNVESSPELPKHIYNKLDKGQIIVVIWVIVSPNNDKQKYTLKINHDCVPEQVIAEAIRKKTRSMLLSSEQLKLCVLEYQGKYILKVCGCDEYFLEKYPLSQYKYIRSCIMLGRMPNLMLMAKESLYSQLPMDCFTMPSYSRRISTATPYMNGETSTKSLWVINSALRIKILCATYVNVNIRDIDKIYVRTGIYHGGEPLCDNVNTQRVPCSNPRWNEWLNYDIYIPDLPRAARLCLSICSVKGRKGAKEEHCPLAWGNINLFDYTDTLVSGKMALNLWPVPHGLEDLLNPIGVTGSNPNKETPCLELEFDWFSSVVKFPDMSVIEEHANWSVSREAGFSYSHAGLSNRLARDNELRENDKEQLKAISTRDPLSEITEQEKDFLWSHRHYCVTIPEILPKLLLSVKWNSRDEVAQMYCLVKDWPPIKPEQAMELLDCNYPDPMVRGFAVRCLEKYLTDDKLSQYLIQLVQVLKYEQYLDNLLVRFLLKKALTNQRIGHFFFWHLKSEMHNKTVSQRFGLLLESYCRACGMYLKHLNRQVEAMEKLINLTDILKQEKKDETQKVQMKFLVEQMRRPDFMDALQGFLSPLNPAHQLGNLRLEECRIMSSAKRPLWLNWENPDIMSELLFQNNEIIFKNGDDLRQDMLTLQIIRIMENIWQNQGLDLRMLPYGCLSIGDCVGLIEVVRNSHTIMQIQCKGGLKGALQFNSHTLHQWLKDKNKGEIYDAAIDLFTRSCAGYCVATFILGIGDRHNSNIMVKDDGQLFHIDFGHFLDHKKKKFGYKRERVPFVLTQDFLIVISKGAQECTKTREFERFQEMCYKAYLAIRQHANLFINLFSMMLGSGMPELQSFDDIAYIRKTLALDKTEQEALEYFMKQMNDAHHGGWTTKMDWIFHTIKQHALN
T1 sequence (P27986 whole entry partner): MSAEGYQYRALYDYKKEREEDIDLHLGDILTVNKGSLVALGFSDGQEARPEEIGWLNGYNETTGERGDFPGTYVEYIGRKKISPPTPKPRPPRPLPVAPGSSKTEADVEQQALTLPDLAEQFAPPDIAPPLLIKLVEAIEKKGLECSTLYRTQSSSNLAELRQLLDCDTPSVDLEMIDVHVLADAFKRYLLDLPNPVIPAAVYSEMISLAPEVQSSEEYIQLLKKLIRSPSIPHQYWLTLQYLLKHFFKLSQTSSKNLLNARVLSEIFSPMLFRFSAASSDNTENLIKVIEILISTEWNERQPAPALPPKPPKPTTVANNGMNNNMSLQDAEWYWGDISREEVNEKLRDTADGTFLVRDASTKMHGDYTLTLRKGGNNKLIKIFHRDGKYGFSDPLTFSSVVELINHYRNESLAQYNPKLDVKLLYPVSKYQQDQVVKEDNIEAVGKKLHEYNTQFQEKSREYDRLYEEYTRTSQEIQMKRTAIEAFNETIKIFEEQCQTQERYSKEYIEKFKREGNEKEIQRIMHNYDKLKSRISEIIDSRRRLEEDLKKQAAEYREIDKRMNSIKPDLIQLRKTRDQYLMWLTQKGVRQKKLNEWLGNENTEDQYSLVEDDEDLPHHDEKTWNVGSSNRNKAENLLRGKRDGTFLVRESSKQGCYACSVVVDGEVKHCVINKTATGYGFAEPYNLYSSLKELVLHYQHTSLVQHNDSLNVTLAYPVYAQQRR

Row | Compound | IC50
1 | C=CC(=O)NCC(=O)N1CCC(O)(c2cc3nc(-c4cccc5[nH]ncc45)nc(N4CCOCC4)c3s2)CC1 [II-a-134, N-(2-(4-(2-(1H-indazol-4-yl)-4-morpholinothieno[3,2-d]pyrimidin-6-yl)-4-hydroxypiperidin-1-yl)-2-oxoethyl)acrylamide] | 100 to 1000 nM
2 | C=CC(=O)Nc1ccc(C(=O)N2CC=C(c3cc4nc(-c5cnc(N)nc5)cc(C5=CCOCC5)c4s3)CC2)cc1 [II-g-5, N-(4-(4-(5-(2-aminopyrimidin-5-yl)-7-(3,6-dihydro-2H-pyran-4-yl)thieno[3,2-b]pyridin-2-yl)-1,2,3,6-tetrahydropyridine-1-carbonyl)phenyl)acrylamide] | > 1000 nM
3 | CC(C)=CC(=O)CCCCC#Cc1cc(-c2cccc3[nH]ncc23)nc(N2CCOCC2)c1 [XII-7, 10-(2-(1H-indazol-4-yl)-6-morpholinopyridin-4-yl)-2-methyldec-2-en-9-yn-4-one] | > 1000 nM
4 | C=CC(=O)NCCOCCOc1ccc2c(c1OC)N=C(NC(=O)c1cccnc1)N1CCN=C21 [IX-1, N-(8-(2-(2-acrylamidoethoxy)ethoxy)-7-methoxy-2,3-dihydroimidazo[1,2-c]quinazolin-5-yl)nicotinamide] | 10 to 100 nM
5 | C/C=C/C(=O)CCC(=O)NCc1ccc(OC)c(-n2c(CSc3ncnc4[nH]cnc34)nc3cccc(Cl)c3c2=O)c1 [I-6, (E)-N-(3-(2-((9H-purin-6-ylthio)methyl)-5-chloro-4-oxoquinazolin-3(4H)-yl)-4-methoxybenzyl)-4-oxohept-5-enamide] | > 1000 nM
6 | CC(C)=CC(=O)CCC(=O)N1CCN(Cc2cc(-c3cnc(N)nc3)nc(N3CCOCC3)c2)CC1 [XII-1, 1-(4-((2-(2-aminopyrimidin-5-yl)-6-morpholinopyridin-4-yl)methyl)piperazin-1-yl)-6-methylhept-5-ene-1,4-dione] | 100 to 1000 nM
7 | C=CC(=O)N1CCC(C#Cc2cc3nc(-c4cccc(O)c4)nc(N4CCOCC4)c3s2)CC1 [II-a-70, 1-(4-((2-(3-hydroxyphenyl)-4-morpholinothieno[3,2-d]pyrimidin-6-yl)ethynyl)piperidin-1-yl)prop-2-en-1-one] | 10 to 100 nM
8 | O=C(/C=C/c1ncc[nH]1)CCC(=O)N1CCN(Cc2cc3nc(-c4cccc5[nH]ncc45)nc(N4CCOCC4)c3s2)CC1 [II-a-125, (E)-1-(4-((2-(1H-indazol-4-yl)-4-morpholinothieno[3,2-d]pyrimidin-6-yl)methyl)piperazin-1-yl)-6-(1H-imidazol-2-yl)hex-5-ene-1,4-dione] | 100 to 1000 nM
9 | C=CC(=O)Nc1ccc(CNC(=O)c2cc(-c3cccc4[nH]ncc34)nc(N3CCOCC3)c2)cc1 [XII-14, N-(4-acrylamidobenzyl)-2-(1H-indazol-4-yl)-6-morpholinoisonicotinamide] | > 1000 nM
10 | C/C=C/C(=O)CCC(=O)N1CCN(c2ccc(-c3ccnc4ccc(/C=C5\SC(=O)NC5=O)cc34)cn2)CC1 [V-13, (Z)-5-((4-(6-(4-((E)-4-oxohept-5-enoyl)piperazin-1-yl)pyridin-3-yl)quinolin-6-yl)methylene)thiazolidine-2,4-dione] | < 10 nM
11 | C=CC(=O)N1CCc2cc(-c3cc4nc(-c5cccc(O)c5)nc(N5CCOCC5)c4s3)ccc2C1 [II-a-66, 1-(6-(2-(3-hydroxyphenyl)-4-morpholinothieno[3,2-d]pyrimidin-6-yl)-3,4-dihydroisoquinolin-2(1H)-yl)prop-2-en-1-one] | 10 to 100 nM
12 | C=CC(=O)N(C)CC(=O)N1CCC(n2nc(-c3cc4cc(O)ccc4[nH]3)c3c(N)ncnc32)CC1 [XI-8, N-(2-(4-(4-amino-3-(5-hydroxy-1H-indol-2-yl)-1H-pyrazolo[3,4-d]pyrimidin-1-yl)piperidin-1-yl)-2-oxoethyl)-N-methylacrylamide] | > 1000 nM
13 | CC(C)=CC(=O)C(F)(F)C(F)(F)C(=O)N1CCN(Cc2cc3nc(-c4cccc5[nH]ncc45)nc(N4CCOCC4)c3s2)CC1 [II-a-157, 1-(4-((2-(1H-indazol-4-yl)-4-morpholinothieno[3,2-d]pyrimidin-6-yl)methyl)piperazin-1-yl)-2,2,3,3-tetrafluoro-6-methylhept-5-ene-1,4-dione] | 100 to 1000 nM
14 | CC(C)=CC(=O)CCC(=O)N1CC=C(c2cc3nc(-c4cnc(N)nc4)nc(N4CCOCC4)c3s2)CC1 [II-a-165, 1-(4-(2-(2-aminopyrimidin-5-yl)-4-morpholinothieno[3,2-d]pyrimidin-6-yl)-5,6-dihydropyridin-1(2H)-yl)-6-methylhept-5-ene-1,4-dione] | 10 to 100 nM
15 | CC(C)=CC(=O)CCCC(=O)N1CC=C(c2cc(-c3cnc(N)nc3)nc(N3CCOCC3)c2)CC1 [XII-3, 1-(4-(2-(2-aminopyrimidin-5-yl)-6-morpholinopyridin-4-yl)-5,6-dihydropyridin-1(2H)-yl)-7-methyloct-6-ene-1,5-dione] | 10 to 100 nM
16 | C/C=C/C(=O)CCCC(=O)NCC(=O)Nc1ccc2c(c1)N(c1nc3c(s1)C(=O)NC(C)(C)C3)CCO2 [VI-25] | > 1000 nM
17 | CC(C)OC/C=C/C(=O)CCC(=O)N1CCN(Cc2cc3nc(-c4cccc5[nH]ncc45)nc(N4CCOCC4)c3s2)CC1 [II-a-62, (E)-1-(4-((2-(1H-indazol-4-yl)-4-morpholinothieno[3,2-d]pyrimidin-6-yl)methyl)piperazin-1-yl)-7-isopropoxyhept-5-ene-1,4-dione] | 10 to 100 nM
18 | C=CC(=O)NCCC(=O)N1CCC[C@@H](n2nc(-c3cc4cc(O)ccc4[nH]3)c3c(N)ncnc32)C1 [XI-4, (R)—N-(3-(3-(4-amino-3-(5-hydroxy-1H-indol-2-yl)-1H-pyrazolo[3,4-d]pyrimidin-1-yl)piperidin-1-yl)-3-oxopropyl)acrylamide] | > 1000 nM
19 | C/C=C/C(=O)CCC(=O)N1CCc2ccc(-c3cc4nc(-c5cccc(O)c5)nc(N5CCOCC5)c4s3)cc2C1 [II-a-67, (E)-1-(7-(2-(3-hydroxyphenyl)-4-morpholinothieno[3,2-d]pyrimidin-6-yl)-3,4-dihydroisoquinolin-2(1H)-yl)hept-5-ene-1,4-dione] | < 10 nM
20 | C/C=C/C(=O)CCC(=O)NCCOc1ccc2c(c1OC)N=C(NC(=O)c1cccnc1)N1CCN=C21 [IX-2, (E)-N-(7-methoxy-8-(2-(4-oxohept-5-enamido)ethoxy)-2,3-dihydroimidazo[1,2-c]quinazolin-5-yl)nicotinamide] | 10 to 100 nM
21 | O=C(CCl)N1CCN(Cc2cc3nc(-c4cccc5[nH]ncc45)nc(N4CCOCC4)c3s2)CC1 [II-a-145, 1-(4-((2-(1H-indazol-4-yl)-4-morpholinothieno[3,2-d]pyrimidin-6-yl)methyl)piperazin-1-yl)-2-chloroethanone] | 100 to 1000 nM
22 | C=CC(=O)N[C@H]1CC[C@@H](C(=O)N2CCN(Cc3cc4nc(-c5cccc6[nH]ncc56)nc(N5CCOCC5)c4s3)CC2)CC1 [II-a-99] | 100 to 1000 nM
23 | C/C=C/C(=O)CCCC(=O)N1CCc2ccc(-c3ccnc4ccc(/C=C5\SC(=O)NC5=O)cc34)cc2C1 [V-17, (Z)-5-((4-(2-((E)-5-oxooct-6-enoyl)-1,2,3,4-tetrahydroisoquinolin-7-yl)quinolin-6-yl)methylene)thiazolidine-2,4-dione] | 10 to 100 nM
24 | COc1c(OCCNC(=O)c2ccc(NC(=O)/C=C/c3ncc[nH]3)cc2)ccc2c1N=C(NC(=O)c1cccnc1)N1CCN=C21 [IX-6, (E)-N-(8-(2-(4-(3-(1H-imidazol-2-yl)acrylamido)benzamido)ethoxy)-7-methoxy-2,3-dihydroimidazo[1,2-c]quinazolin-5-yl)nicotinamide] | 10 to 100 nM
25 | C=CC(=O)N1CCc2ccc(-c3ccnc4ccc(/C=C5\SC(=O)NC5=O)cc34)cc2C1 [V-19, (Z)-5-((4-(2-acryloyl-1,2,3,4-tetrahydroisoquinolin-7-yl)quinolin-6-yl)methylene)thiazolidine-2,4-dione] | 10 to 100 nM
26 | CC(C)=CC(=O)CCCC(=O)N1CC=C(c2cc3nc(-c4cnc(N)nc4)nc(N4CCOCC4)c3s2)CC1 [II-a-166, 1-(4-(2-(2-aminopyrimidin-5-yl)-4-morpholinothieno[3,2-d]pyrimidin-6-yl)-5,6-dihydropyridin-1(2H)-yl)-7-methyloct-6-ene-1,5-dione] | < 10 nM
27 | C=CC(=O)N1CCC(O)(C#Cc2cc3nc(-c4cccc5[nH]ncc45)nc(N4CCOCC4)c3s2)CC1 [II-a-101, 1-(4-((2-(1H-indazol-4-yl)-4-morpholinothieno[3,2-d]pyrimidin-6-yl)ethynyl)-4-hydroxypiperidin-1-yl)prop-2-en-1-one] | 100 to 1000 nM
28 | CC(C)=CC(=O)CCCC(=O)N1CC2(CCN(c3cc(-c4cnc(N)nc4)nc(N4CCOCC4)c3)CC2)C1 [XII-44, 1-(7-(2-(2-aminopyrimidin-5-yl)-6-morpholinopyridin-4-yl)-2,7-diazaspiro[3.5]nonan-2-yl)-7-methyloct-6-ene-1,5-dione] | > 1000 nM
29 | C/C=C/C(=O)CCC(=O)N1CCN(c2ccc(-c3cc4nc(-c5cccc(O)c5)nc(N5CCOCC5)c4s3)cc2)CC1 [II-a-102, (E)-1-(4-(4-(2-(3-hydroxyphenyl)-4-morpholinothieno[3,2-d]pyrimidin-6-yl)phenyl)piperazin-1-yl)hept-5-ene-1,4-dione] | < 10 nM
30 | CC(C)=CC(=O)C1(C(=O)N2CCC3(CC2)CCN(c2cc(-c4cnc(N)nc4)nc(N4CCOCC4)c2)CC3)CC1 [XII-36, 1-(1-(9-(2-(2-aminopyrimidin-5-yl)-6-morpholinopyridin-4-yl)-3,9-diazaspiro[5.5]undecane-3-carbonyl)cyclopropyl)-3-methylbut-2-en-1-one] | 100 to 1000 nM
